Source: publication PMC12040169 (PLOS Biology, 2025)

Assay: in vitro
Details: human, hela cells, % viability

| Structure (SMILES) | viability at 28.5 h, 10 µM | viability at 28.5 h, 10 µM (bulk resorufin, single well) |
| --- | --- | --- |
| CCOC(=O)c1ccccc1NS(=O)(=O)c1cc(Cl)sc1Cl [CBK045448] | 85.8% |  |
| c1csc(-c2nn3c(Cn4cnc5ccccc54)nnc3s2)c1 [CBK268262] | 87.9% |  |
| O=[N+]([O-])c1cc(-c2nnc(-c3ccccc3)o2)ccc1-n1c(-c2ccccc2)nnc1-c1ccccc1 [CBK267341] | 99.2% |  |
| Nc1ncc(-c2ccc(-c3ccccc3F)cc2)c2cccnc12 [CBK067597] | 76.5% |  |
| CCN1CC2(CCN(Cc3c(F)cccc3F)CC2)c2ccccc21 [CBK136986] | 94% |  |
| NCCCN(Cc1ccco1)C1CCCC1 [CBK268856] | 109% |  |
| O=C(Nc1ccc2oc(-c3cccnc3)nc2c1)c1ccc(Br)o1 [CBK263436] | 112% |  |
| CCNC(=O)N(C)c1c(CC)nc2c(OCc3ccc(S(C)(=O)=O)cc3)cccn12 [CBK147797] | 93.4% |  |
| Cc1nc2ccc(NC(=O)CC3CCN(S(=O)(=O)c4cccc(F)c4)CC3)cc2[nH]1 [CBK285903] | 88.8% |  |
| CCOC(=O)C1(C2CCCCC2)CCN(C(=O)c2cscn2)CC1 [CBK137101] | 82.1% |  |
| COc1ccccc1CCNCc1ccc([N+](=O)[O-])cc1 [CBK262292] |  | 93.3% |
| Cc1nc(C(F)(F)F)ccc1NC(=O)CSCC(=O)O [CBK056975] | 93.3% |  |
| CC(C)[C@H](CO)n1c(=O)[nH]c2ncc(-c3ccco3)nc21 [CBK064479] | 86.7% |  |
| NC(=O)COc1ccc(CNc2ccc(Oc3ccccc3)cc2)cc1Cl [CBK269584] | 89.4% |  |
| COc1ccccc1OCc1ccc(Cl)s1 [CBK002782] | 82.7% |  |
| Cc1cc(C(F)F)n2nc(C(=O)NCc3ccccc3F)nc2n1 [CBK266228] | 97.2% |  |
| CCOC(=O)c1sc(Cl)nc1C(F)(F)F [CBK026746] | 103% |  |
| O=C(Nc1ccccc1N1CCNCC1)c1cccs1 [CBK029443T] | 95.5% |  |
| CCOC(=O)C(C)n1nc(CC)n2c(cc3sc(C)cc32)c1=O (stereo not drawn) [CBK284123] | 86% |  |
| CSC1=Nc2cc(Cl)ccc2SCC1 [CBK019829] | 98.1% |  |
| O=C(NCCCn1ccnc1)c1cc2c(ccc3ccccc32)oc1=O [CBK263543] | 86% |  |
| Cc1ccn(CCNC(=O)c2cccc(N3CCCC3=O)c2)n1 [CBK282642] | 105% |  |
| Cc1cc(C)n(-c2nc(NC(C)(C)C)nc(N3CCOCC3)n2)n1 [CBK269810] | 85.5% |  |

| Structure (SMILES) | viability at 28.5 h, 10 µM | viability at 28.5 h, 10 µM (bulk resorufin, single well) |
| --- | --- | --- |
| Nc1cc2ccccc2c(-c2ccc3c(c2)OCCCO3)n1 [CBK085722] | 102% |  |
| OC1(c2cccnc2F)CCN(Cc2ccc(Cl)cc2)CC1 [CBK284368] | 102% |  |
| Nc1cccc(-c2cn(C[C@H]3CC4CCN3C[C@@H]4C(=O)NC3CCCCC3)nn2)c1 (stereo partly drawn) [CBK289083] | 84.2% |  |
| O=C(O)CCNC1CC(=O)N(Cc2ccccc2)C1=O (stereo not drawn) [CBK287246] | 99% |  |
| O=C(O)/C(=N\O)c1ccc(CCc2ccccc2)s1 [CBK261213] | 90.8% |  |
| COc1cccc(CN2CCc3cc(OC)c(OC)cc3C2)c1 [CBK126441] | 102% |  |
| O=C1NC2(CCCC2)N=C1c1ccc(Cl)cc1Cl [CBK288042] | 82.4% |  |
| CC(c1ccc(Cl)cc1)N(CCN(C)C)c1ccccn1 (stereo not drawn) [CBK012273F] | 100% |  |
| C=CCn1c(-c2sc(NC(=O)c3ccc(Cl)cc3F)nc2C)n[nH]c1=S [CBK295361] | 94.7% |  |
| CC(=O)c1ccc(CN2CCN(S(=O)(=O)c3ccc(C(F)(F)F)cc3Cl)CC2)cc1 [CBK063072] | 96% |  |
| O=C(C1CCCN(c2ccc3nncn3n2)C1)N1CCOCC1 (stereo not drawn) [CBK287901] | 104% |  |
| Cc1ccc(SCCCCn2cnc3ccccc32)cc1 [CBK267801G] | 103% |  |
| COc1cc(C(=O)c2ccc(Cl)cc2)cc(Br)c1OCCN1CCOCC1 [CBK010131C] | 96.5% |  |
| COc1cccc(CN(Cc2ccco2)Cc2cncn2C)c1 [CBK282497] | 102% |  |
| CC(C)(C)c1csc(NC(=O)C2CC(=O)N(Cc3cccs3)C2)n1 (stereo not drawn) [CBK175547] | 109% |  |
| Cc1ccc(C(=O)C2=C(O)C(=O)N(CCO)C2c2ccccc2[N+](=O)[O-])cc1 (stereo not drawn) [CBK263822] | 97.1% |  |
| NC(=O)COc1ccc(/C=C/c2cc(C(F)(F)F)[nH]c(=O)n2)cc1 [CBK269475] | 90.6% |  |
| O=C(CCS(=O)(=O)c1ccccc1)Nc1ccccc1N1CCNCC1 [CBK028285T] | 99.8% |  |
| NC(=O)C1=CN([C@@H]2O[C@H](CO)[C@H](O)C2O)C2N=CN=C(N)C12 (stereo partly drawn) [CBK201209] |  | 0.996% |
| CCOC(=O)C1(c2ccccc2)CCN(C(=O)CCSC)CC1 [CBK132184] |  | 113% |
| CCCCC(c1cccnc1)N(C)C(=O)Cn1ccccc1=O (stereo not drawn) [CBK306936] | 104% |  |
| CC(=O)c1cccc(-c2cnc(N)c(-c3ccc(O)cc3)n2)c1 [CBK122508] | 98.1% |  |
| COC(=O)c1cc(-c2c[nH]c3ccccc23)[nH]n1 [CBK241010] | 92.5% |  |

| Structure (SMILES) | viability at 28.5 h, 10 µM | viability at 28.5 h, 10 µM (bulk resorufin, single well) |
| --- | --- | --- |
| O=c1c(-c2nc3ccccc3s2)coc2c(CN3CCCCC3)c(O)ccc12 [CBK262161] | 106% |  |
| CCCCN(C)c1nccnc1-c1cccnc1 [CBK037631] | 99.2% |  |
| CC1CCCCN1C(=O)c1cccc(Cn2cc(Br)c([N+](=O)[O-])n2)c1 (stereo not drawn) [CBK058788] | 104% |  |
| O=C(O)[C@@H]1CCCN1c1nc(O)cc(C(F)(F)F)n1 [CBK002865] | 81.3% |  |
| Cc1nc(CN2CCC(C(=O)c3ccc(F)cc3)CC2)cs1 [CBK149147] | 103% |  |
| CC(=O)N[C@H]1[C@H](Oc2ccc3ccccc3c2)O[C@@H]2COC(C)(C)O[C@H]2[C@@H]1O [CBK091644] | 87% |  |
| CCOc1ccc2nc(NS(=O)(=O)c3ccc4c5c(cccc35)C(=O)N4)sc2c1 [CBK262162] | 100% |  |
| CSc1ccc(CNCCc2c[nH]c3ccccc23)cc1 [CBK262126] | 93.4% |  |
| O=C(O)c1cccc(-c2ccc(/C=C\c3nc(O)c([N+](=O)[O-])c(=O)[nH]3)o2)c1 [CBK267209] | 96.9% |  |
| CNc1nc(C)c(C(=O)N2CCCC(COc3ccc(F)cc3)C2)s1 (stereo not drawn) [CBK307234] | 103% |  |
| COc1ncc(-c2cncc(Nc3cccc(C#N)c3)n2)c(OC)n1 [CBK066022] | 89.7% |  |
| CC(C(=O)N[C@H]1C2CCCCC2[C@@H]1c1ccccc1)N1CCOCC1 (stereo partly drawn) [CBK282964] | 86.4% |  |
| CCc1cc(=O)[nH]c(-c2ccc(N3CCOCC3C)nc2)n1 (stereo not drawn) [CBK305532] | 95.7% |  |
| CCC(C(=O)Nc1nccs1)N(C)Cc1c(C)nn(C(C)C)c1C (stereo not drawn) [CBK307402] | 103% |  |
| Fc1ccccc1CN1CCN(c2nccnc2OCCN2CCOCC2)CC1 [CBK082886T] | 102% |  |
| Cc1ccccc1-n1c(C)cc(C(=O)CSc2nncn2C)c1C [CBK298330] | 91.9% |  |
| COc1ccccc1-c1ccc2c(c1)COC1(CCN(C)CC1)O2 [CBK061024] | 82.2% |  |
| O=c1cc(O)c2cc([N+](=O)[O-])ccc2n1CCc1ccccc1 [CBK291165] | 90.8% |  |
| O=C(NCn1nnc2ccccc21)c1ccccc1 [CBK056950] | 93.6% |  |
| Cc1ccc(-c2oncc2C(=O)NCc2cccs2)cc1 [CBK153679] | 95.7% |  |
| CC1=NN(c2ccccc2)C(=O)/C1=C1/C(=O)Nc2c(C)cc(Br)cc21 [CBK263950] | 92% |  |
| Cc1ccc(OCc2cc(C)on2)c(Br)c1 [CBK002837] | 109% |  |
| O=C(c1cccnc1)C1CCN(C(=O)c2cc(F)cc(F)c2)CC1 [CBK283746] | 102% |  |

| Structure (SMILES) | viability at 28.5 h, 10 µM | viability at 28.5 h, 10 µM (bulk resorufin, single well) |
| --- | --- | --- |
| CCc1nc2ccc(C(=O)N3CCCCC3)cn2c1N(C)C(=O)c1cccc(OC)c1 [CBK146392] | 113% |  |
| CCC(C)N(C)CCNC(=O)Nc1ccc(F)c(-n2nnnc2C)c1 (stereo not drawn) [CBK305176] | 101% |  |
| COc1ccc([C@@]23CC[C@@H](NC(=S)NC(C)=O)C[C@@H]2N(Cc2ccccc2)CC3)cc1OC [CBK025503T] | 90.2% |  |
| CCNCCNc1ccc([N+](=O)[O-])cc1 [CBK264179C] | 94.1% |  |
| O=c1cc(Nc2ccc3c(c2)OCO3)[nH]c(=O)n1-c1ccc(Cl)cc1 [CBK287507] | 86.6% |  |
| COc1c(C(=O)Nc2ccc(CN3CCOCC3)cc2)cc2ccccc2c1Br [CBK268593] | 103% |  |
| Cn1nc(NC(=O)COCC(=O)O)c2ccccc21 [CBK057114] | 98.8% |  |
| O=S(=O)(c1ccc(-n2cnc(Cl)c2Cl)cc1)N1CCCN(Cc2csc(-c3ccccc3)n2)CC1 [CBK062790] | 104% |  |
| O=C1c2ccccc2C(=O)N1CCc1nc2c3c4c(sc3ncn2n1)CCCCC4 [CBK268327] | 96.6% |  |
| Cc1onc(-c2ccccc2)c1C(=O)Nc1ccccc1N1CCCNCC1 [CBK038929T] | 96.9% |  |
| O=C(NCCCn1ccnc1)c1cc2ncc(Br)cn2n1 [CBK277080] | 97.6% |  |
| CN(C)CCN(C)C(=O)Cc1csc(-c2ccccc2F)n1 [CBK282173] | 112% |  |
| CCc1nc(CN(C)C2CCN(CC(=O)NCc3ccco3)C2)no1 (stereo not drawn) [CBK305328] | 111% |  |
| COCCC(=O)Nc1ccc(N2CCNCC2)nc1 [CBK004749T] | 92.2% |  |
| Cc1ccc(C)c(S(=O)(=O)NCCCn2ccnc2)c1 [CBK262205] | 109% |  |
| COc1ccccc1C1OC(=O)C[C@@H]1C(=O)Nc1cc(C(C)(C)C)on1 (stereo partly drawn) [CBK021439] | 110% |  |
| CCOCCCNC(=O)/C(=C/c1cccnc1)NC(=O)c1ccccc1 [CBK126866] | 90.8% |  |
| CC1Cc2ccccc2N1C(=O)CSc1nnc2sc3ccccc3n12 (stereo not drawn) [CBK265398] | 94% |  |
| CC(C)(C)NCC(O)COc1cccc2c1C[C@H](O)[C@H](O)C2 (stereo partly drawn) [CBK011678] | 102% |  |
| COc1ccc(C(=O)Nc2ccccc2-c2nc3ccccc3s2)cc1OC [CBK266376] | 93.9% |  |
| O=C(O)c1cccc(Nc2nc(Nc3ccccc3)nc(N3CCCC3)n2)c1 [CBK286863] | 89.8% |  |
